From ChEMBL document CHEMBL2331082, “Cinnamic acid derivatives as inhibitors for chorismatases and isochorismatases” (Bioorg Med Chem Lett, 2013)

Assays:
Chorismatase [1] = molecular target: T1, Chorismatase (Streptomyces hygroscopicus subsp. ascomyceticus, UniProt Q9KID9); test: Inhibition of Streptomyces hygroscopicus subsp. ascomyceticus chorismatase FkbO expressed in Escherichia coli BL21(DE3) using chorismate as substrate after 5 mins by LDH-coupled spectrophotometric assay
T1 sequence (Q9KID9 whole entry): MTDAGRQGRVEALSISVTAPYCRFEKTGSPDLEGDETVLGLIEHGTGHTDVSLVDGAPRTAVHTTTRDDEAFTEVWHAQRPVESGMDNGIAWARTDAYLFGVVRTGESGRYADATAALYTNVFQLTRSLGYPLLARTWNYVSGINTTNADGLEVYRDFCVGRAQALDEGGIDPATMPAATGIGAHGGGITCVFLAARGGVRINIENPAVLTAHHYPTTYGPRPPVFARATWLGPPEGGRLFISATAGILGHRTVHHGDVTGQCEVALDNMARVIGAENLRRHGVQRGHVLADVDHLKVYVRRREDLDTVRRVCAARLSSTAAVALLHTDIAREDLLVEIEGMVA

[2] = Inhibition of Escherichia coli EntB expressed in Escherichia coli BL21(DE3) using chorismate as substrate after 5 mins by LDH-coupled spectrophotometric assay
[3] = Competitive inhibition of Escherichia coli EntB expressed in Escherichia coli BL21(DE3) using chorismate as substrate
[4] = Inhibition of Streptomyces hygroscopicus hyg5 expressed in Escherichia coli BL21(DE3) using chorismate as substrate after 5 mins by LDH-coupled spectrophotometric assay
Chorismatase [5] = molecular target: T1, Chorismatase; test: Competitive inhibition of Streptomyces hygroscopicus subsp. ascomyceticus chorismatase FkbO expressed in Escherichia coli BL21(DE3) using chorismate as substrate

SMILES	IC50 (Chorismatase [1]) [µM]	IC50 [2] [µM]	Ki [3] [µM]	IC50 [4] [µM]	Ki (Chorismatase [5]) [µM]
O=C(O)CCc1cccc(C(=O)O)c1	1090	472	282	1250	1020
O=C(O)/C=C/c1cccc(C(=O)O)c1	45000	209	122	68500	19600
